Tested on: human Jurkat cell line
Test: Cytotoxicity, flow cytometry viability assay with propidium iodide
Type: cell-based
Conditions: 24 h treatment, average of three experiments
Method in brief: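 Jurkat cells in RPMI 1640 with 5% FCS exposed to a concentration range of compound or PBS for 24 h. Dead cells scored as PI-positive events (3.75 μM PI, 5 min, room temperature) by flow cytometry, 10,000 events per sample. IC50 obtained by curve fitting; triplicates.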

N^1-(benzo[d][1,3]dioxol-5-ylmethyl)-N^3-(2-((2-((3-((benzo[d][1,3]dioxol-5-ylmethyl)amino)propyl)amino)ethyl)(2-((3-(((2,3-dihydrobenzofuran-6-yl)methyl)amino)propyl)amino)ethyl)amino)ethyl)propane-1,3-diamine [Compound 4a]
IC50, cytotoxicity on the human Jurkat cell line: 76.86 µg/mL
